Source: patent US20250092418A1, “METHODS OF GENETICALLY ALTERING A PLANT NIN-GENE TO BE RESPONSIVE TO AUXIN” (NIAB, priority 2023, published 2025)

How the values were obtained:
[1] = test system: pDgNIN:GUS; assay: GUS staining of pDgNIN:GUS hairy roots after treatment with LCO / chitin oligomer signaling molecules; assay type: in vivo, Datisca glomerata; details: 24 hours post treatment with 10^−7M
Procedure: (§1) For GUS staining the harvested roots were thoroughly cleaned in sterile water and scored under the stereo-fluorescent microscope so that only the transformed roots were harvested for the staining purpose. The roots were fixed in 90% acetone on ice for 1 hour. Subsequently, the acetone was replaced with 50 mM phosphate buffer pH7.2 (Sigma) and the roots were washed twice to remove any acetone. The roots were then moved to the staining solution containing 0.1M Phosphate buffer, 0.25 mM K3[Fe(CN)6](potassium ferricyanide), 0.25 mM K4[Fe(CN)6](potassium ferrocyanide), 0.25% (v/v) Triton X-100 and 1 mM 5-bromo-4-chloro-3-indolyl beta-D-glucuronide (X-Gluc, Thermo). The samples were vacuum infiltrated for 30 minutes and incubated at 37° C. overnight. After staining the tissues were cleared of all the staining solution and stored in 50% ethanol for imaging under the stereomicroscope DX105 F (Leica). For ruthenium red staining the staining solution was prepared (0.1% ruthenium red in sterile water) and a few microliters are added over each section and subsequently washed using sterile deionized water. For toluidine blue staining, 0.1% toluidine blue staining solution was prepared in deionized water and a few microliters are added over each section and subsequently washed using sterile deionized water. […]

[2] = test system: pDgNIN2:GUS; assay: GUS staining of pDgNIN2:GUS hairy roots after treatment with LCO / chitin oligomer signaling molecules; assay type: in vivo, Datisca glomerata; details: 24 hours post treatment with 10^−7M
Procedure: as §1

[3] = test system: MtNIN; assay: Relative expression of MtNIN in M. truncatula roots after auxin analogue treatment; assay type: in vivo, Medicago truncatula; details: exogenous treatment 0.1, 1 or 10 μM for 16 hours and 2 days
Procedure: Germinated seedlings (approx. 4 days after germination) are moved to FPmod plates supplemented with 0.1 μM, 1 μM, or 10 μM NAA, 0.8% agarose (Sigma), and adjusted to pH 7. The seedlings were maintained for 16 hours and 2 days under 16 h-day and 8 h-night cycle at 24-22° C. before harvesting them for RNA extraction.
Total RNA was reverse-transcribed using SuperScript™ III Reverse Transcriptase (Life Technologies) and anchored dT17 primers as described in the manufacturer's protocol. About 1 μl of cDNA was used to set up real-time RT-qPCR in a […] reaction system with 2×SYBR™ Green PCR master mixes (PCR biosystems) using an ABI Proflex7 Real-Time PCR system. PCR program: 1 cycle at 50° C. for 2 min, 1 cycle at 95° C. for 5 min, and 40 cycles at 95° C. for 30 s and 60° C. for 30s. Expression data were obtained from 3 independent biological repetitions. Calculations were done using the cycle threshold method using MtEF1a, DgActin and FvHistoneH4 as the endogenous control.

[4] = test system: pDR5:NLS-eGFP; assay: pDR5:NLS-eGFP expression in barley STARTS lines post auxin treatment; assay type: in vivo, Hordeum vulgare; details: 50 μM 2,4D
Procedure: Tissue culture STARTS plants were grown in rooting media for approximately 4 weeks after transfer, and barley seeds were grown on water-agar plates for seven days after germination, after which seedlings were transferred to 1% Hoagland's media plates. […] The root portion of the plates was covered with aluminum foil. The plants were maintained under a 16 h-day and 8 h-night cycle at 24-22° C. Tissue was harvested four weeks after treatment for phenotyping and RNA extraction.
Auxin treatment was reported to induce nodule like-structures (NLS) in rice (Hiltenbrand et al., 2016). Since it was established in the strawberry system that expressing pDR5:DryasNIN could form NLS with some proto-nodule identity under the influence of auxin, lines in barley (Hordeum vulgare var Golden promise) were raised with the same cassette. To establish the efficacy of the pDR5 promoter in barely system, some transgenics were also raised with pDR5:GUS and pDR5:NLS-eGFP (FIGS. 23A-23F, 24A-24J). In comparison to overexpressing pOsUbi:GUS, pDR5:GUS expression under control condition was very weak (FIGS. 23B-23C).

[5] = test system: pDR5:GUS; assay: pDR5:GUS auxin signaling readout in stable F. vesca lines; assay type: in vivo, Fragaria vesca; set-up: dose or concentration left out as unconfirmed
Procedure: Tissue culture plants growing in SMR (approximately 4 weeks after transfer) were moved to ½ Hoagland's media plates supplemented with 100^−6M NAA, 0.8% agarose (Sigma). The plants were maintained for 4 weeks under a 16 h-day and 8 h-night cycle at 22-24° C. before harvesting for phenotyping and RNA extraction.
as §1, with “(Leica).” for “(Leica). For ruthenium red staining the staining solution was prepared (0.1% ruthenium red in sterile water) and a few microliters are added over each section and subsequently washed using sterile deionized water. For toluidine blue staining, 0.1% toluidine blue staining solution was prepared in deionized water and a few microliters are added over each section and subsequently washed using sterile deionized water.”

[6] = test system: DgNIN2; assay: Relative expression of DgNIN2 in D. glomerata roots (real-time PCR, normalized to DgActin); assay type: in vivo, Datisca glomerata; details: 10 days post treatment with 100^−6M NAA
Procedure: (§2) Germinated seedlings (approx. 4 weeks after germination) are moved to ½MS plates supplemented with 0.5 g/L MES (Merck), 100^−6M NAA, 0.8% agarose (Sigma) and adjusted to pH 5.8. The seedlings were maintained for 10 days under a 16 h-day and 8 h-night cycle at 22-24° C. before harvesting for RNA extraction.
(§3) Each plant root system consisting of transformed root or nodules was harvested and each individual root system formed a biological replicate; 3 or more technical replicates were prepared from each root system having a 100-150 mg sample. RNA was extracted using a modified extraction buffer containing 2% SDS (v/v), 100 mM Tris-HCl pH 8.0, 1.4M NaCl, and 20 mM EDTA. The samples were crushed with tungsten-carbide beads (Qiagen) in a mechanical pulverize (Spex Geno/Grinder®) in the presence of 12 μl/ml β-mercaptoethanol (Sigma) and 50 mg PVPP (Sigma). The powder was resuspended with the extraction buffer followed by treatment with chloroform:iso-amyl alcohol (24:1)(Melford) and chloroform (Sigma). […] The extracted RNA was quantified using a NanoDrop® (Thermo) and then treated for DNase digestion using TURBO DNA-free™ kit (Thermo) using the manufacturer protocol. […] Quantitative real-time polymerase chain reaction (qRT-PCR) was performed in technical replicates using SyGreen mix Lo-ROX (PCR Biosystems) using QuantStudio™ 7 Flex system (ABI) in a total volume of 10 μl. […]

[7] = test system: pDR5:GUS; assay: pDR5:GUS expression in barley STARTS lines post auxin treatment; assay type: in vivo, Hordeum vulgare; details: 100 μM NAA, 3 weeks post treatment
Procedure: as §1

[8] = test system: DgNIN; assay: Relative expression of DgNIN in D. glomerata roots (real-time PCR, normalized to DgActin); assay type: in vivo, Datisca glomerata; details: 10 days post treatment with 100^−6M NAA
Procedure: as §2, §3

SMILES | GUS staining of pDgNIN:GUS roots [1] | GUS staining of pDgNIN2:GUS roots [2] | activation of MtNIN expression [3] | other results
CC(=O)N[C@H]1[C@H](O[C@H]2[C@H](O)[C@@H](NC(C)=O)C(O)O[C@@H]2CO)O[C@H](CO)[C@@H](O[C@@H]2O[C@H](CO)[C@@H](O[C@@H]3O[C@H](CO)[C@@H](O)[C@H](O)[C@H]3NC(C)=O)[C@H](O)[C@H]2NC(C)=O)[C@@H]1O (stereo partly shown) [C04] | intense staining in the root vasculature and near the root tip | did not show staining |  | 
CC(=O)N[C@H]1[C@H](O[C@H]2[C@H](O)[C@@H](NC(C)=O)[C@H](O[C@H]3[C@H](O)[C@@H](NC(C)=O)[C@H](O[C@H]4[C@H](O)[C@@H](NC(C)=O)C(O)O[C@@H]4CO)O[C@@H]3CO)O[C@@H]2CO)O[C@H](CO)[C@@H](O[C@@H]2O[C@H](CO)[C@@H](O[C@@H]3O[C@H](CO)[C@@H](O[C@@H]4O[C@H](CO)[C@@H](O[C@@H]5O[C@H](CO)[C@@H](O)[C@H](O)[C@H]5NC(C)=O)[C@H](O)[C@H]4NC(C)=O)[C@H](O)[C@H]3NC(C)=O)[C@H](O)[C@H]2NC(C)=O)[C@@H]1O (stereo partly shown) [C08] | no staining | failed to induce any NIN expression |  | 
O=C(O)CCCc1c[nH]c2ccccc12 [IBA, Indole-3-butyric acid] |  |  | differential activation of MtNIN expression | 
O=C(O)COc1ccc(Cl)cc1Cl [2,4D, 2,4-Dichlorophenoxyacetic acid] |  |  | differential activation of MtNIN expression | pDR5:NLS-eGFP signal [4]: eGFP localization could be seen in the nucleus
O=C(O)Cc1cccc2ccccc12 [NAA, 1-naphthalene acetic acid] |  |  | differential activation of MtNIN expression | pDR5:GUS staining pattern ([5]; +N+P+NAA): non-specific expression throughout the root system; pDR5:GUS staining pattern ([5]; −N+P+NAA (N limiting condition)): localized GUS staining in the bump like structures; increase in the expression of DgNIN2 as compared to the control treated root samples [6]: ~12 fold; pDR5:GUS staining [7]: GUS staining was visible in the bump-like structures; increase in the expression of DgNIN as compared to the control treated root samples [8]: ~4 fold
